pIC50, pKi: −log10 of the molar value. Where two headings read alike, the source gives them in different places.
Assays:
[1] = target: HPK full length, T165E S171E (Homo sapiens (Human), UniProt Q92918, S171E/T165E); assay: HPK1-FL HTRF enzymatic assay ("HTRF"); format: biochemical; conditions: ATP 1 mM
Outline: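 Full-length HPK1 (T165E/S171E) was preincubated 30 min with compound, then reacted 60 min with biotin-SLP-76 and 1 mM ATP. Phospho-SLP-76 was detected by HTRF (Eu-anti-pSLP76 antibody, SA-XL665) after a further 60 min.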

[2] = tested on: primary human pan T cells; assay: Human T-cell IL2 induction assay; format: cell-based
gMDCKI cell line = assay: Permeability assay in gMDCKI cells; format: in vitro ADME, canine; conditions: apical-to-basolateral, 10 μM, 2-hour incubation
Experimental: (§1) Cell permeability of compounds of interest was assessed in the gMDCKI cell line, which is a modified MDCKI (Madin-Darby canine kidney) originally acquired from American Type Culture Collection (Manassa, Va.) and generated at Genentech. […] Test article was tested at 10 μM in the apical-to-basolateral (A-B) and basolateral-to-apical (B-A) directions. Test compound was dissolved in transport buffer consisting of Hank's balanced salt solution and […] (Invitrogen Corporation, Grand Island, N.Y.). Transepithelial electrical resistance (TEER) and lucifer yellow (LY) permeability were used to monitor monolayer integrity at the beginning and the end of the experiments, respectively. Test articles were analyzed by LC-MS/MS.
(§2) The efflux ratio (ER) is calculated as (Papp, B−A/Papp, A−B).
(§3) Cell permeability were assessed for exemplary compounds of Formula (I).

[3] = tested on: phosphorylation of SLP-76 (S376) by HPK-1 in human Jurkat cells; assay: pSLP76 assay (sandwich ELISA, anti-CD3 stimulated Jurkat cells); format: cell-based; conditions: Jurkat cells, anti-CD3 stimulation, read-out: pSLP76 IC50
Experimental: Phospho-SLP76 (S376) is detected by sandwich ELISA using an anti-pSLP76(S376) capture antibody and a biotinylated anti-SLP76 detection antibody.
Incubate Jurkat cells with varying concentrations of test compounds for 30 minutes in a humidified incubator at 37° C. and 5% CO2. Add anti-CD3 DynaBeads at a 4:1 bead:cell ratio. Stimulate cells in a humidified incubator at 37° C. and 5% CO2 for 10 minutes. Add cold lysis buffer and incubate on a shaker at 4° C. for 30 minutes. Transfer cell lysates to a pre-blocked ELISA plate coated with capture antibody. Incubate at room temperature shaking for 2 hours. Wash ELISA plate 5× with wash buffer and add 25 μl of biotinylated detection antibody at a final concentration of 0.5 μg/ml. Incubate at room temperature shaking for 1 hour. Wash ELISA plate 5× with wash buffer and add 25 μl of streptavidin enzyme conjugate at a final dilution of 1:8000. Incubate at room temperature shaking for 20 minutes. Wash ELISA plate 5× with wash buffer and add 25 μl of TMB substrate solution. Incubate at room temperature in the dark shaking for 20 minutes. Add 25 μl of STOP solution and read on SoftMax Pro for absorbance at 450 nm.
Exemplary compounds of Formula (I) were tested in pSLP76 assays.

[4] = tested on: Cryopreserved human hepatocytes; assay: Hepatocyte stability assay; format: in vitro ADME; conditions: 1 μM, scaled hepatic clearance
Experimental: (§4) Metabolic stability of compounds are assessed using a hepatocyte stability assay. Cryopreserved human hepatocytes from a 10 donor pool are quickly thawed at 37° C., suspended in prewarmed In VitroGRO™ HT Medium, and then centrifuged at 100×g at room temperature for 10 min. The supernatants are discarded, and cells are resuspended in 5 mL Dulbecco's Modified Eagle Medium (DMEM) medium. Cell viability in suspension is counted on a Hepatometer® Vision (Lonza, N.C.), and viable cells are then adjusted to […] in DMEM. Compounds are first diluted to 2 μM with DMEM medium, and then aliquots of 125 μL of drug-containing medium are transferred to 96-well non-coated plates. Incubation is initiated by the addition of 125 μL of hepatocyte suspension to yield a total incubation volume of 250 μL. Final concentration of each compound is 1 μM, and final cell density is 0.5×10^6 cells/mL. Incubations are conducted in a humidified incubator at 37° C. Aliquots of 50 μL incubation medium are taken out at different time intervals (0, 60, 120 and 180 min), and immediately mixed with 100 μL of ice-cold acetonitrile containing 50 nM propranolol (internal standard). Samples are then centrifuged at 10,000×g for 10 min, and 80 μL of supernatant is taken out and diluted with 160 μL of water prior to LC/MS-MS analysis.
(§5) Human hepatocyte stability was assessed for exemplary compounds of Formula (I) according to the above procedures.

[5] = Pharmacokinetic study in rat; format: in vivo, Sprague Dawley rat; conditions: PO 2 mg/kg, 10% DMSO/60% PEG400/30% Water, Solution
Experimental: Pharmacokinetic Study in Rat: Male Sprague Dawley rats obtained from Lingchang/Vital River Laboratory Animal Technology Co., Ltd., (Shanghai/Beijing, P.R. China) with body weight ranging between 200 g to 300 g were use in the PK studies. Group of 3 rats were given a 1 mg/kg intravenous bolus (IV) dose of the test article in solution formulation, and another group of 3 rats were given a 2 or 5 mg/kg oral (PO) dose of test article as a 0.5% methylcellulose with 0.2% Tween 80 (MCT) suspension or as a solution. Blood samples (250 μL, per time point) were collected serially via the catheter in femoral artery at 0.033, 0.083, 0.25, 0.5, 1, 2, 4, 6, and 8 hours after IV or PO administration from each of the rat. Blood samples were collected into pre-chilled tubes containing Potassium (K2) EDTA and centrifuged at 3,200 g for 10 minutes at 2 to 8° C. within 1 hour of collection to harvest plasma. Plasma samples were stored at −70° C. until LC/MS/MS analysis. Concentration in each plasma sample was determined by a non-validated LC/MS/MS. Data is acquired using multiple reaction monitoring (MRM) with specific transitions monitored for each compound.
Following PO administration, percent bioavailability (% F) was determined for each animal by dividing the dose normalized area under the plasma concentration-time curve, extrapolated to infinity (AUCinf) obtained following each PO dose by the mean dose normalized AUCinf of the animals dosed by IV injection. All PK parameters are presented as mean±standard deviation (SD).
Pharmacokinetic studies were conducted in rat for exemplary compounds of Formula (I).

[6] = Permeability assay in gMDCKI cells; format: in vitro ADME, canine; conditions: dog, MDCK, apical-to-basolateral, 2-hour incubation, read-out: MDCK AB Papp
Experimental: as §1, §2, §3

[7] = Hepatocyte stability assay; format: in vitro ADME; conditions: cryopreserved human hepatocytes (10 donor pool, suspension), scaled hepatic clearance, read-out: HHep Clearance
Experimental: as §4, §5

HPK full length, T165E S171E, sequence (Q92918 whole entry T165E/S171E, looked up): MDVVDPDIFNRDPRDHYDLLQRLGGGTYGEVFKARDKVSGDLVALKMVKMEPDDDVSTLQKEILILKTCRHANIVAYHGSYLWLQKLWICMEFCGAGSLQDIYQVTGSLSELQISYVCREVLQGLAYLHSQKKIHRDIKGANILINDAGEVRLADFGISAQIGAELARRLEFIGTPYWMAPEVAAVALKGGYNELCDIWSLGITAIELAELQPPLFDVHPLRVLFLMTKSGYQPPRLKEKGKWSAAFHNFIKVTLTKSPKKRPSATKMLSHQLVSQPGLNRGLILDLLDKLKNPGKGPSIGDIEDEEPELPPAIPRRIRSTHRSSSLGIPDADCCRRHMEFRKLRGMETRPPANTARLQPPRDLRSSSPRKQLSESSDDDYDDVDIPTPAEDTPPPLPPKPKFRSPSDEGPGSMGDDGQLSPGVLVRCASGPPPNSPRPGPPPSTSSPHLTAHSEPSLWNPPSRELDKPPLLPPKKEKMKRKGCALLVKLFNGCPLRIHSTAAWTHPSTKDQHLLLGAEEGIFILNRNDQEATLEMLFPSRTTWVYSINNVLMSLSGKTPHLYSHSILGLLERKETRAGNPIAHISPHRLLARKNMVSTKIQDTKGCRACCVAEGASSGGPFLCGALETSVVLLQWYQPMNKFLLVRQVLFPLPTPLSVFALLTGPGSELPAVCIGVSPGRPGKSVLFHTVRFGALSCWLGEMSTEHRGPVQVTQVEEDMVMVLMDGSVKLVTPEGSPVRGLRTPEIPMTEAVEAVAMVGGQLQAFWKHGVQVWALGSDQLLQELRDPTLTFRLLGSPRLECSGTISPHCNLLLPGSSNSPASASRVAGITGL

| Structure (SMILES) | pKi ([1]; read-out: HPK1 Ki) | % IL-2 increase relative to untreated cells ([2]; assayed concentration 1.196 μM) [%] | MDCK AB Papp (gMDCKI cell line) [×10⁻⁶ cm/s] | pIC50 [3] | HHep Clearance [4] [mL/min/kg] | % F [5] [%] | pKi ([1]; HPK1 Ki) | % IL-2 increase relative to untreated cells ([2]; assayed concentration 8.33 μM) [%] | Papp at 2 h, 10 μM [6] [×10⁻⁶ cm/s] | pIC50 ([3]; Homo sapiens) | CLhep predicted at 1 μM [7] [mL/min/kg] | bioavailability ([5]; male, Sprague Dawley, plasma) [%] |
| --- | --- | --- | --- | --- | --- | --- | --- | --- | --- | --- | --- | --- |
| Cc1c(-c2cc3cc(NC(=O)O[C@H]4C[C@H](C(C)(C)O)C4)ncc3c(N)c2F)cnc2c1NCCO2 [Compound 574a, (1r,3r)-3-(2-Hydroxypropan-2-yl)cyclobutyl (8-amino-7-fluoro-6-(8-methyl-2,3-dihydro-1H-pyrido[2,3-b][1,4]oxazin-7-yl)isoquinolin-3-yl)carbamate] | 10.70 | 1634 | 12 | 7.49 | 8.3 | 16 |  |  |  |  |  |  |
| Cc1c(-c2cc3cc(NC(=O)O[C@@H]4COC[C@@H]4F)ncc3c(N)c2F)cnc2c1NCCO2 (single isomer, unassigned) [Compound 477d] |  |  |  |  |  |  | 10.70 | 1745 | 16 | 7.18 | 5.7 | 43 |

— patent US11612606B2, “8-aminoisoquinoline compounds and uses thereof” (priority 2018, dated 2023)
